The record followed here is US7973047B2, “Beta-Secretase modulators and methods of use” (Amgen Inc., priority 2010, dated 2011).

A value given as a limit tells only on which side of the number the result lay.

The subject of this experiment is Aβ40 in conditioned medium of cells stably expressing Amyloid Precursor Protein (APP). Description: BACE cell-based assay: Aβ40 in conditioned medium by sandwich ELISA. The conditions noted are these: cell based assay data of Table 4; unit inferred; read-out: Cell Assay. The method, boiled down: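 Aβ40 in conditioned medium was read by time-resolved fluorescence sandwich ELISA (capture pAb40, detection biotinylated 6E10, 4° C incubations). Compounds were applied for 24 h to cells stably expressing APP, at 10 doses from 100 or 10 μM top, 0.1% DMSO. IC50 derived from percent of control.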
Regarding `CC(=O)N[C@@H](Cc1ccnc(C)c1)[C@H](O)CN[C@H]1CC2(CCC2)Oc2ncc(CC(C)(C)C)cc21` [compound 640, N-((1S,2R)-3-(((4′S)-6′-(2,2-dimethylpropyl)-3′,4′-dihydrospiro[cyclobutane-1,2′-pyrano[2,3-b]pyridin]-4′-yl)amino)-2-hydroxy-1-((2-methyl-4-pyridinyl)methyl)propyl)acetamide], the IC50 came out at 9.89 nM.
`CC(=O)N[C@@H](Cc1nc(Cl)cs1)[C@H](O)CN[C@H]1CC2(CCC2)Oc2ncc(CC(C)(C)C)cc21` [compound 641, N-((1S,2R)-1-((4-chloro-1,3-thiazol-2-yl)methyl)-3-(((4′S)-6′-(2,2-dimethylpropyl)-3′,4′-dihydrospiro[cyclobutane-1,2′-pyrano[2,3-b]pyridin]-4′-yl)amino)-2-hydroxypropyl)acetamide]: the IC50 turned out to be 6.82 nM.
Take `CC(=O)N[C@@H](Cc1ccnc(Cl)c1)[C@H](O)CN[C@H]1CC2(CCC2)Oc2ncc(CC(C)(C)C)cc21` [compound 642, N-((1S,2R)-1-((2-chloro-4-pyridinyl)methyl)-3-(((4′S)-6′-(2,2-dimethylpropyl)-3′,4′-dihydrospiro[cyclobutane-1,2′-pyrano[2,3-b]pyridin]-4′-yl)amino)-2-hydroxypropyl)acetamide]: the IC50 is 3.37 nM.
As to `COc1cc(C[C@H](NC(C)=O)[C@H](O)CN[C@H]2CC3(CCC3)Oc3ncc(CC(C)(C)C)cc32)ccn1` [compound 643, N-((1S,2R)-3-(((4′S)-6′-(2,2-dimethylpropyl)-3′,4′-dihydrospiro[cyclobutane-1,2′-pyrano[2,3-b]pyridin]-4′-yl)amino)-2-hydroxy-1-((2-(methyloxy)-4-pyridinyl)methyl)propyl)acetamide], the IC50 is 6.79 nM.
`CC(=O)N[C@@H](Cc1cc(C)nc(Cl)c1)[C@H](O)CN[C@H]1CC2(CCC2)Oc2ncc(CC(C)(C)C)cc21` [compound 644, N-((1S,2R)-1-((2-chloro-6-methyl-4-pyridinyl)methyl)-3-(((4′S)-6′-(2,2-dimethylpropyl)-3′,4′-dihydrospiro[cyclobutane-1,2′-pyrano[2,3-b]pyridin]-4′-yl)amino)-2-hydroxypropyl)acetamide]: the IC50 was 6.32 nM.
For `CC(=O)N[C@@H](Cc1ccnc(OCC(F)(F)F)c1)[C@H](O)CN[C@H]1CC2(CCC2)Oc2ncc(CC(C)(C)C)cc21` [compound 645, N-((1S,2R)-3-(((4′S)-6′-(2,2-dimethylpropyl)-3′,4′-dihydrospiro[cyclobutane-1,2′-pyrano[2,3-b]pyridin]-4′-yl)amino)-2-hydroxy-1-((2-((2,2,2-trifluoroethyl)oxy)-4-pyridinyl)methyl)propyl)acetamide], the IC50 amounted to 5.16 nM.
For the molecule `CC(=O)N[C@@H](Cc1cc2ccccc2o1)[C@H](O)CN[C@H]1CC2(CCC2)Oc2ncc(CC(C)(C)C)cc21` [compound 646, N-((1S,2R)-1-(1-benzofuran-2-ylmethyl)-3-(((4′S)-6′-(2,2-dimethylpropyl)-3′,4′-dihydrospiro[cyclobutane-1,2′-pyrano[2,3-b]pyridin]-4′-yl)amino)-2-hydroxypropyl)acetamide], the IC50 turned out to be 52.9 nM.
Turning to `CC(=O)N[C@@H](Cc1ccnc(C(F)(F)F)n1)[C@H](O)CN[C@H]1CC2(CCC2)Oc2ncc(CC(C)(C)C)cc21` [compound 647, N-((1S,2R)-3-(((4′S)-6′-(2,2-dimethylpropyl)-3′,4′-dihydrospiro[cyclobutane-1,2′-pyrano[2,3-b]pyridin]-4′-yl)amino)-2-hydroxy-1-((2-(trifluoromethyl)-4-pyrimidinyl)methyl)propyl)acetamide], the IC50 turned out to be 152 nM.
The result for `CC(=O)N[C@@H](Cc1ccc(C(F)(F)F)cc1)[C@H](O)CN[C@H]1CC2(CCC2)Oc2ncc(CC(C)(C)C)cc21` [compound 648] reads 189 nM; that for `CC(=O)N[C@@H](Cc1ccn(C)c(=O)c1)[C@H](O)CN[C@H]1CC2(CCC2)Oc2ncc(CC(C)(C)C)cc21` [compound 649], 30 nM.
`CC(=O)N[C@@H](Cc1ccc(F)cc1)[C@H](O)CN[C@H]1CC2(CCC2)Oc2ncc(CC(C)(C)C#N)cc21` [compound 650]: the IC50 is 20.2 nM.
The result for `CC(=O)N[C@@H](Cc1cccc(F)c1)[C@H](O)CN[C@H]1CC2(CCC2)Oc2ncc(CC(C)(C)C#N)cc21` [compound 651] reads 4.24 nM.
With `CC(=O)N[C@@H](Cc1ccccc1)[C@H](O)CN[C@H]1CC2(CCC2)Oc2ncc(CC(C)(C)C(F)F)cc21` [compound 652] the figure was 7.84 nM; with `CCc1cc2c(s1)CC1(CCC1)C[C@@H]2NC[C@@H](O)[C@H](Cc1ccccc1)NC(C)=O` [compound 653, N-((1S,2R)-3-(((4S)-2-ethyl-4,7-dihydro-5H-spiro[1-benzothiophene-6,1′-cyclobutan]-4-yl)amino)-2-hydroxy-1-(phenylmethyl)propyl)acetamide], 127 nM; with `CC(=O)N[C@@H](Cc1ccccc1)[C@H](O)CN[C@H]1CC(C)(C)Cc2sc(CC(C)(C)C)cc21` [compound 654, N-((1S,2R)-3-(((4S)-2-(2,2-dimethylpropyl)-6,6-dimethyl-4,5,6,7-tetrahydro-1-benzothien-4-yl)amino)-2-hydroxy-1-(phenylmethyl)propyl)acetamide], 13.8 nM.
On to `COC(=O)N[C@@H](Cc1ccccc1)[C@H](O)CN[C@H]1CC(C)(C)Cc2sc(CC(C)(C)C)cc21` [compound 655, methyl ((1S,2R)-3-(((4S)-2-(2,2-dimethylpropyl)-6,6-dimethyl-4,5,6,7-tetrahydro-1-benzothien-4-yl)amino)-2-hydroxy-1-(phenylmethyl)propyl)carbamate], for which the IC50 was found to be 105 nM.
In the case of `CC(=O)N[C@@H](Cc1cc(F)cc(F)c1)[C@H](O)CN[C@H]1CC2(CCC2)Oc2nc(F)c(CC(C)(C)C)cc21` [compound 659], the IC50 stood at 6.42 nM.
As to `CC(=O)N[C@@H](Cc1cccc(F)c1)[C@H](O)CN[C@H]1CC2(CCC2)Oc2nc(F)c(CC(C)(C)C)cc21` [compound 661], the IC50 worked out at 10.2 nM.
On to `CC(=O)N[C@@H](Cc1ccc(F)cc1)[C@H](O)CN[C@H]1CC2(CCC2)Oc2nc(F)c(CC(C)(C)C)cc21` [compound 662], for which the IC50 was 94.7 nM.
`COc1ccc(C[C@H](NC(C)=O)[C@H](O)CN[C@H]2CC3(CCC3)Oc3ncc(CC(C)(C)C)cc32)cc1F` [compound 665]: the IC50 is 8.53 nM.
As for `COc1ccc(C[C@H](NC(C)=O)[C@@H](O)CN[C@H]2CC3(CCC3)Oc3ncc(CC(C)(C)C)cc32)cc1F` [compound 666], the IC50 was 162 nM.
Take `CC(=O)N[C@@H](Cc1ccc(Cl)cc1)[C@H](O)CN[C@H]1CC2(CCC2)Oc2nc(F)c(CC(C)(C)C)cc21` [compound 667]: the IC50 came out at 385 nM.
As to `CC(=O)N[C@@H](Cc1ccc(Cl)cc1)[C@H](O)CN[C@H]1C[C@@]2(CCOC2)Oc2ncc(CC(C)(C)C)cc21` [compound 669], the IC50 is no less than 10000 nM.
On to `CC(=O)N[C@@H](Cc1ccc(Cl)cc1)[C@H](O)CN[C@H]1C[C@]2(CCOC2)Oc2ncc(CC(C)(C)C)cc21` [compound 670, N-((1S,2R)-1-((4-chlorophenyl)methyl)-3-(((3R,4′S)-6′-(2,2-dimethylpropyl)-3′,4,4′,5-tetrahydrospiro[furan-3,2′-pyrano[2,3-b]pyridin]-4′-yl)amino)-2-hydroxypropyl)acetamide], for which the IC50 amounted to 51.8 nM.
Regarding `CC(=O)N[C@@H](Cc1ccc(F)cc1)[C@H](O)CN[C@H]1C[C@@]2(CCOC2)Oc2ncc(CC(C)(C)C)cc21` [compound 671], the IC50 came out at 20.5 nM.
Regarding `CC(=O)N[C@@H](Cc1ccc(F)cc1)[C@H](O)CN[C@H]1C[C@]2(CCOC2)Oc2ncc(CC(C)(C)C)cc21` [compound 672], the IC50 worked out at 23.8 nM.
On to `CC(=O)N[C@@H](Cc1ccc(F)cc1)[C@H](O)CN[C@H]1CC2(CCC2)Oc2ncc([C@@H](F)C(C)(C)C)cc21` [compound 674], for which the IC50 worked out at 1080 nM.
With `CC(=O)N[C@@H](Cc1ccc(F)cc1)[C@H](O)CN[C@H]1CC2(CCC2)Oc2ncc([C@H](F)C(C)(C)C)cc21` [compound 675] the figure was 12.1 nM; with `CC(=O)N[C@@H](Cc1ccc(F)c(C(F)(F)F)c1)[C@H](O)CN[C@H]1CC2(CCC2)Oc2ncc(CC(C)(C)C)cc21` [compound 676], 18.1 nM.
As for `CC(=O)N[C@@H](Cc1cccc(F)c1F)[C@H](O)CN[C@H]1CC2(CCC2)Oc2ncc([C@H](F)C(C)(C)C)cc21` [compound 677], the IC50 turned out to be 8.61 nM.
Regarding `CC(=O)N[C@@H](Cc1cccc(F)c1)[C@H](O)CN[C@H]1CC2(CCC2)Oc2ncc([C@H](F)C(C)(C)C)cc21` [compound 678], the IC50 turned out to be 2.07 nM.
As to `CC(=O)N[C@@H](Cc1ccccc1)[C@H](O)CN[C@H]1CC2(CCC2)Oc2ncc([C@H](F)C(C)(C)C)cc21` [compound 679], the IC50 was found to be 6.04 nM.
On to `CC(=O)N[C@@H](Cc1ccc(Cl)cc1)[C@H](O)CN[C@H]1CC2(CCC2)Oc2ncc([C@H](F)C(C)(C)C)cc21` [compound 680], for which the IC50 came to 23.1 nM.
On to `CC(=O)N[C@@H](Cc1cc(F)cc(F)c1)[C@H](O)CN[C@H]1CC2(CCC2)Oc2ncc([C@H](F)C(C)(C)C)cc21` [compound 681], for which the IC50 is 3.46 nM.
The result for `CC(=O)N[C@@H](Cc1ccc(F)cc1)[C@H](O)CN[C@H]1CC2(CCC2)Oc2ncc(CC3CCC3)cc21` [compound 682] reads 66.5 nM; that for `CC(=O)N[C@@H](Cc1ccc(F)cc1)[C@H](O)CN[C@@H]1c2cc(CC(C)(C)C)cnc2N2CCC[C@@H]12` [compound 683], 524 nM; that for `CCCCC(O)c1cnc2c(c1)[C@@H](NC[C@@H](O)[C@H](Cc1ccc(F)cc1)NC(C)=O)CC1(CCC1)O2` (stereo partly drawn) [compound 684], 2860 nM.
As for `CC(=O)N[C@@H](Cc1cc(F)c(F)cc1F)[C@H](O)CN[C@H]1CC2(CCC2)Oc2ncc(CC(C)(C)C)cc21` [compound 685], the IC50 worked out at 9.28 nM.
As for `CC(=O)N[C@@H](Cc1cc(F)c(F)c(F)c1)[C@H](O)CN[C@H]1CC2(CCC2)Oc2ncc(CC(C)(C)C)cc21` [compound 686], the IC50 turned out to be 7.07 nM.
